Reference: patent publication EP4624465A1, “COMPOUND SERVING AS DDR1 KINASE INHIBITOR, AND MEDICINE” (Nippon Shinyaku Co., Ltd., priority 2022, dated 2024)
Structures can show the parent of a compound that is named as a salt.

Tests used:
[1] = target: T1, DDR1 kinase (Homo sapiens, UniProt Q08345); test: Evaluation of DDR1 kinase inhibition (LANCE Ultra TR-FRET kinase assay); format: biochemical; design: purchased Carna Biosciences 08-113; conditions: DDR1 protein 0.5 nM, LANCE Ultra ULight-poly GAT substrate, 2 hours at room temperature, duplicate; read-out: DDR-1 IC50
Target sequence in this assay (Q08345 19-876 isoform Q08345-2 limits assumed): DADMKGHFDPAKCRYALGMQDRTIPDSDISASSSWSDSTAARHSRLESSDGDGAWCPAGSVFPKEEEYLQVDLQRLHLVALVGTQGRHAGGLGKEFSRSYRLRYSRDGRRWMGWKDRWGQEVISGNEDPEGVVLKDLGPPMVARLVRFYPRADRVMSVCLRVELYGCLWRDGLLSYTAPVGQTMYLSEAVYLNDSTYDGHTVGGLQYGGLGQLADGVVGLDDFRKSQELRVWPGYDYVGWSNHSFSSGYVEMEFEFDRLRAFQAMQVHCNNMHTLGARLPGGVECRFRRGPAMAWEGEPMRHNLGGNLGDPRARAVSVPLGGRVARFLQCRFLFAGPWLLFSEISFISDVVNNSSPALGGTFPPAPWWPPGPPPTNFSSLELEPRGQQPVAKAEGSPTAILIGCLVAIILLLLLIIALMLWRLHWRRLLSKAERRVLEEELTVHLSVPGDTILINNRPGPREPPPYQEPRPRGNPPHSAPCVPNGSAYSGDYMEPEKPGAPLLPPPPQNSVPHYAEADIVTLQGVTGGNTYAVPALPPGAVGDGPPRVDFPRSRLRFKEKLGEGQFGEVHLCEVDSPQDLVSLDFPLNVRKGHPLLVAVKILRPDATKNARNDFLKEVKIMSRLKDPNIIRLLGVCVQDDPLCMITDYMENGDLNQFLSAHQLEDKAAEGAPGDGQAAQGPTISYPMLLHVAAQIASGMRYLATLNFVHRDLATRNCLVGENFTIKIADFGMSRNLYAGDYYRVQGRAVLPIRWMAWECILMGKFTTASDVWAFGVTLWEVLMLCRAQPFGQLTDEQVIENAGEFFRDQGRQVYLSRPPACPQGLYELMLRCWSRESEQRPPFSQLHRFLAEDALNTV

[2] = target: T1, DDR1 kinase; test: Evaluation of DDR1 kinase inhibition in DDR1-expressing U2OS cells (type I collagen stimulation, PathHunter detection); format: cell-based; design: host or cells: U2OS; conditions: type I collagen 50 µg/mL stimulation, duplicate, read-out: DDR-1 IC50
Protocol: The solution was further diluted in an E-MEM medium (Fujifilm Wako Pure Chemicals, 051-07615) containing 10% fetal bovine serum (FBS, Gibco, 10270106) to 60000, 6000, 600, 60, 6, and 0.6 nM to prepare test substance solutions. 2. […] On the following day, after the plate was left at room temperature for 1 hour, a detection solution was added to the wells at […] according to the handling instructions for the PathHunter® Detection Kit (DiscoverX, 93-0001), and then incubated at room temperature for 2 hours. After the incubation, a luminescence intensity was measured by Envision (Perkin-Elmer). Tests were performed in duplicate. 3.
Target sequence in this assay (Q08345 19-913): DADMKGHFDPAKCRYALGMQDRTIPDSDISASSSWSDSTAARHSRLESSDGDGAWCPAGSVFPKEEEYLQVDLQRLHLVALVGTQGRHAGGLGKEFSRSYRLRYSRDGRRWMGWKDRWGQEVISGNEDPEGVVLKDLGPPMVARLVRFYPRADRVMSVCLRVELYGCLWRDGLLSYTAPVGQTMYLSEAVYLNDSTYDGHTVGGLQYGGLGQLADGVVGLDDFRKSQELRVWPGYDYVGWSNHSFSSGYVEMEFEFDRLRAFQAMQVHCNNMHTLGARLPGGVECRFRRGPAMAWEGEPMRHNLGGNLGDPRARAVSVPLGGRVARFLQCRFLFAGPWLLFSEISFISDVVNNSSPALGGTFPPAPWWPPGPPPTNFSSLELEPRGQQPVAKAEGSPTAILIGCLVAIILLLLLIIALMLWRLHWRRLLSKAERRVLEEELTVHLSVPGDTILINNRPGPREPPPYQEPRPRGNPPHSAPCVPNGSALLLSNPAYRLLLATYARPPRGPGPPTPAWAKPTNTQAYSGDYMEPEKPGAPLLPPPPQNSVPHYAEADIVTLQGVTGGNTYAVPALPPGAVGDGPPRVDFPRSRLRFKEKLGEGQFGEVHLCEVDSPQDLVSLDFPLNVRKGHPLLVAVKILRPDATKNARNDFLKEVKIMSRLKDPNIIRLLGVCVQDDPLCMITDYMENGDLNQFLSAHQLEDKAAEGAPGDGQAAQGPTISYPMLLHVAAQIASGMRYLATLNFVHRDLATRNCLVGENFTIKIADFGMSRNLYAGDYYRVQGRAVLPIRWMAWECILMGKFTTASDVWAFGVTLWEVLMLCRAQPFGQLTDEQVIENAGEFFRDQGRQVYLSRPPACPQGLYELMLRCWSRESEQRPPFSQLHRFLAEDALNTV

Compound | IC50 [1] [nM] | IC50 [2] [nM]
Cc1c(C(=O)N2CC(c3nn(CC(=O)N4CCO[C@@H](C(F)(F)F)C4)c4cc(F)cc(F)c34)C2)ccnc1N [Compound E-51, 2-{3-[1-(2-amino-3-methylpyridine-4-carbonyl)azetidin-3-yl]-4,6-difluoro-1H-indazol-1-yl}-1-[(2R)-2-(trifluoromethyl)morpholin-4-yl]ethan-1-one hydrochloride] | 12 | 400
Nc1cc(C(=O)N2CC(c3nn(Cc4nc(C(F)(F)F)no4)c4ccccc34)C2)c(F)cn1 [Compound E-18, 5-fluoro-4-[3-(1-{[3-(trifluoromethyl)-1,2,4-oxadiazol-5-yl]methyl}-1H-indazol-3-yl)azetidine-1-carbonyl]pyridin-2-amine] | 6.9 | 26
Nc1ncc(F)c(C(=O)N2CC(c3nn(CC(=O)N4CCC[C@H]4C(F)(F)F)c4ccccc34)C2)n1 [Compound E-22, 2-{3-[1-(2-amino-5-fluoropyrimidine-4-carbonyl)azetidin-3-yl]-1H-indazol-1-yl}-1-[(2S)-2-(trifluoromethyl)pyrrolidin-1-yl]ethan-1-one] | 5.6 | 18
Nc1cc(C(=O)N2CC(c3nn(CC(=O)N4CCC[C@H]4C(F)(F)F)c4ccccc34)C2)ccn1 [Compound E-40, 2-{3-[1-(2-aminopyridine-4-carbonyl)azetidin-3-yl]-1H-indazol-1-yl}-1-[(2S)-2-(trifluoromethyl)pyrrolidin-1-yl]ethan-1-one] | 5.7 | 69
CN(CC(F)(F)F)C(=O)Cn1nc(C2CN(C(=O)c3ccnc(N)n3)C2)c2cc(Cl)ccc21 [Compound E-4, 2-{3-[1-(2-aminopyrimidine-4-carbonyl)azetidin-3-yl]-5-chloro-1H-indazol-1-yl}-N-methyl-N-(2,2,2-trifluoroethyl)acetamide] | 2 | 55
O=C(Cn1nc(C2CN(C(=O)c3ccnc(NC4CC4)c3)C2)c2c(F)cccc21)NCC(F)(F)F [Compound E-65, 2-(3-{1-[2-(cyclopropylamino)pyridine-4-carbonyl]azetidin-3-yl}-4-fluoro-1H-indazol-1-yl)-N-(2,2,2-trifluoroethyl)acetamide hydrochloride] | 1.9 | 41

Continued, values first:

IC50 [1] [nM] | IC50 [2] [nM] | Compound
8.6 | 250 | Nc1cc(C(=O)N2CC(c3nn(Cc4nc(C(F)(F)F)no4)c4cccc(F)c34)C2)ccn1 [Compound E-115, 4-[3-(4-fluoro-1-{[3-(trifluoromethyn-1,2,4-oxadiazol-5-yl]methyl}-1H-indazol-3-yl)azetidine-1-carbonyl]pyridin-2-amine hydrochloride]
91 | 670 | Nc1cc(C(=O)N2CC(c3nn(C(F)C(=O)N4CCC[C@H]4C(F)(F)F)c4cc(F)cc(F)c34)C2)ccn1 (stereo partly drawn) [Compound E-107, 2-{3-[1-(2-aminopyridine-4-carbonyl)azetidin-3-yl]-4,6-difluoro-1H-indazol-1-yl}-2-fluoro-1-[(2S)-2-(trifluoromethyl)pyrrolidin-1-yl]ethan-1-one]
3.7 | 170 | Nc1cc(C(=O)N2CC(c3nn(Cc4ccc(C(F)(F)F)cc4)c4cccc(F)c34)C2)ccn1 [Compound E-112, 4-[3-(4-fluoro-1-{[4-(trifluoromethyl)phenyllmethyl}-1H-indazol-3-yl)azetidine-1-carbonyl]pyridin-2-amine hydrochloride]
1 | 100 | Nc1cc(C(=O)N2CCC(c3cn(CC(=O)N4CCC[C@H]4C(F)(F)F)c4cccc(F)c34)CC2)ccn1 [Compound E-108, 2-{3-[1-(2-aminopyridine-4-carbonyp)piperidin-4-yl]-4-fluoro-1H-indol-1-yl}-1-[(2S)-2-(trifluoromethyl)pyrrolidin-1-yl]ethan-1-one]
